Source: ChEMBL document CHEMBL4507282, “Data for DCP probe BI-1950” (2021)

Legend:
[1] = biological target: GABA-A receptor; anion channel (Rattus norvegicus) (UniProt O09028+P15431+P18506+P18508+P19969+P20236+P23574+P23576+P28471+P28473+P30191+P62813+P63079+P63138+Q91ZM7+Q9ES14); conditions: Compound concentration 10.0 uM
[2] = biological target: Histamine H1 receptor (Homo sapiens) (UniProt P35367); test: H1/H Eurofins-Panlabs selectivity data (BI); conditions: Compound concentration 10.0 uM
[3] = biological target: Vasopressin V2 receptor (Homo sapiens) (UniProt P30518); test: VASOPRE_V2 Eurofins-Panlabs selectivity data (BI); conditions: Compound concentration 10.0 uM
Chain of Vasopressin V2 receptor (Homo sapiens) (P30518 whole entry): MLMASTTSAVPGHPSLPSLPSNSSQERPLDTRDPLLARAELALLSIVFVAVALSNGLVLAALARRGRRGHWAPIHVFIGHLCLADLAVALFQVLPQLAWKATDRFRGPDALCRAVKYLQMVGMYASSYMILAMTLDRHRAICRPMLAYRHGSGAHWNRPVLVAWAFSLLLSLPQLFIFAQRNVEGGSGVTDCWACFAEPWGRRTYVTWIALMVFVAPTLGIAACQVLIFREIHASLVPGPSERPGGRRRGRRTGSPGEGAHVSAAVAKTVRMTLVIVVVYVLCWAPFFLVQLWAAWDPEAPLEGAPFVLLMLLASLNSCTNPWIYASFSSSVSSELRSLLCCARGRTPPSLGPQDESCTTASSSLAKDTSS

[4] = biological target: Sodium-dependent noradrenaline transporter (Homo sapiens) (UniProt P23975); test: NETRANS/H Eurofins-Panlabs selectivity data (BI); conditions: Compound concentration 10.0 uM
Chain of Sodium-dependent noradrenaline transporter (Homo sapiens) (P23975 whole entry): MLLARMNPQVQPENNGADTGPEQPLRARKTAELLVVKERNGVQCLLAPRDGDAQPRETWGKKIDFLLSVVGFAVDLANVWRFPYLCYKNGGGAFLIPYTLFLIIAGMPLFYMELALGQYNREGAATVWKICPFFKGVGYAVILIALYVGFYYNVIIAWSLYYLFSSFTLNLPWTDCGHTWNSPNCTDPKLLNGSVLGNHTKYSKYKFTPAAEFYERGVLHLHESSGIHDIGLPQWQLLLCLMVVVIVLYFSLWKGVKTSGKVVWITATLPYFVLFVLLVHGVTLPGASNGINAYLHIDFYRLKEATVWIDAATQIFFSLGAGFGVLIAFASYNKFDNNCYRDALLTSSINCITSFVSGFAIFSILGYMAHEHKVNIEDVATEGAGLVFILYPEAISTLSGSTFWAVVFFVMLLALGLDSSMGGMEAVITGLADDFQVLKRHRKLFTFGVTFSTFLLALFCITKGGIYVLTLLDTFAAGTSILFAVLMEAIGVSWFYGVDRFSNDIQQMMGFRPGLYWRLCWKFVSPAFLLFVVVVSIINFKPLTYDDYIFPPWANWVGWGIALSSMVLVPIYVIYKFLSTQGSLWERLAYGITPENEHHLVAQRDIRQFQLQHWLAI

[5] = biological target: 5-hydroxytryptamine receptor 6 (Homo sapiens) (UniProt P50406); test: 5HT6/HU Eurofins-Panlabs selectivity data (BI); conditions: Compound concentration 10.0 uM
Chain of 5-hydroxytryptamine receptor 6 (Homo sapiens) (P50406 whole entry): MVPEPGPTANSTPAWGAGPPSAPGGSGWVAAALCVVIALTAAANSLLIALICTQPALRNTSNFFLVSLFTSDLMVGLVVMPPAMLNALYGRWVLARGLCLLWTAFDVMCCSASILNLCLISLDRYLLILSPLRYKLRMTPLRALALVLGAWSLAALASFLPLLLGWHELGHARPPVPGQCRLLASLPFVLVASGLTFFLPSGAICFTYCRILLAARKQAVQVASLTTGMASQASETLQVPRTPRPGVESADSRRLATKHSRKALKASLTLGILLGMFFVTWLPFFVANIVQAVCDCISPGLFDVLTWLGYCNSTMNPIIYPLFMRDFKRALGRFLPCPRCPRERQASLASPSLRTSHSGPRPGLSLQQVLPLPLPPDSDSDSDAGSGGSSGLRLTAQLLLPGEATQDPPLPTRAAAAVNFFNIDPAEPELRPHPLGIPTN

[6] = biological target: Beta-2 adrenergic receptor (Rattus norvegicus) (UniProt P10608); test: BETA/R Eurofins-Panlabs selectivity data (BI); conditions: Compound concentration 10.0 uM
Chain of Beta-2 adrenergic receptor (Rattus norvegicus) (P10608 whole entry, looked up): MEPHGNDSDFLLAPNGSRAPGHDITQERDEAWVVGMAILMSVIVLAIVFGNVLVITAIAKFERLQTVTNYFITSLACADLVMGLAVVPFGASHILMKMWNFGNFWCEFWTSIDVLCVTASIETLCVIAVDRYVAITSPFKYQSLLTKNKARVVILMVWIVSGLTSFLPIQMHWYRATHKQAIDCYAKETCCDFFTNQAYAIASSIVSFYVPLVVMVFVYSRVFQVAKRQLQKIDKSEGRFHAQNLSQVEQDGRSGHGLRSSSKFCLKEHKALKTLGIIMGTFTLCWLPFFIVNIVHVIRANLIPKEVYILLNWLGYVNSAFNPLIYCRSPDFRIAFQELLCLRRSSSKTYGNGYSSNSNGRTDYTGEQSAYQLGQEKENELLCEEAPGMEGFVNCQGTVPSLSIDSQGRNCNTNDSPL

[7] = biological target: D(2) dopamine receptor (Homo sapiens) (UniProt P14416); test: D2L/H Eurofins-Panlabs selectivity data (BI); conditions: Compound concentration 10.0 uM
Chain of D(2) dopamine receptor (Homo sapiens) (P14416 whole entry): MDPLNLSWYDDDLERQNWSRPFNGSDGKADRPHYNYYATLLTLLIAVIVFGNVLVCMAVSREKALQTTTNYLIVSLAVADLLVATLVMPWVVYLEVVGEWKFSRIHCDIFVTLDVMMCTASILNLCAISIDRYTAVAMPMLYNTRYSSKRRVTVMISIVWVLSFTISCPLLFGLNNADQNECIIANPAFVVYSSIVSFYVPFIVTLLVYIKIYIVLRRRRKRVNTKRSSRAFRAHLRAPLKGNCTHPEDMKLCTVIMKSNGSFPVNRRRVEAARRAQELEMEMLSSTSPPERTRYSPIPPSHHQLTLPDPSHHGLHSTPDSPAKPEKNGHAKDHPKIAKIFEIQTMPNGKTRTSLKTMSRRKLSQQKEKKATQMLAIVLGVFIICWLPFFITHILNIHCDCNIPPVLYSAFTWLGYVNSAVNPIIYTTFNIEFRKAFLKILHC

[8] = biological target: Gamma-aminobutyric acid receptor subunit alpha-1 (Rattus norvegicus) (UniProt P62813); test: GABAA MUSCIMOL CENT Eurofins-Panlabs selectivity data (BI); conditions: Compound concentration 10.0 uM
Chain of Gamma-aminobutyric acid receptor subunit alpha-1 (Rattus norvegicus) (P62813 whole entry): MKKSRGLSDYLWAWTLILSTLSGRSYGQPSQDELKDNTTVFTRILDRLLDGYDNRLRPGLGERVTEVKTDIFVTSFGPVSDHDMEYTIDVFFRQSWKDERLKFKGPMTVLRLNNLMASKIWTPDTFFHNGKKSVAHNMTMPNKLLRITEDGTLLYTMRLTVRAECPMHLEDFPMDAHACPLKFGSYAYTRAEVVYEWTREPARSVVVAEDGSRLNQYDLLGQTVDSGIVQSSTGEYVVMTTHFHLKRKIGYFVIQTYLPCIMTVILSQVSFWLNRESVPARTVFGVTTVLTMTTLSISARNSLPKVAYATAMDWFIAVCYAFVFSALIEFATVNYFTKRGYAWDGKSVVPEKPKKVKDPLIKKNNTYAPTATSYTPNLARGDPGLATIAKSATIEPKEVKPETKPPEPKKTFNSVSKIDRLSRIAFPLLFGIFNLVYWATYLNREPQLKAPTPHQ

[9] = biological target: Sodium channel regulatory subunit beta-1 (Rattus norvegicus) (UniProt Q00954); test: NA+/SITE2/RA Eurofins-Panlabs selectivity data (BI)
Chain of Sodium channel regulatory subunit beta-1 (Rattus norvegicus) (Q00954 whole entry): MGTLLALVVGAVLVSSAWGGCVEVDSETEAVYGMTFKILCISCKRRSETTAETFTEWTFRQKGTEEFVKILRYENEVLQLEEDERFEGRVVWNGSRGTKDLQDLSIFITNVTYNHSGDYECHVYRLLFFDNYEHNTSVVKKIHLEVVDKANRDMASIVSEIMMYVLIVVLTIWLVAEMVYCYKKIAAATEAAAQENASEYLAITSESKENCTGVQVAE

[10] = biological target: T1, D(4) dopamine receptor (Homo sapiens) (UniProt P21917); test: D4.2/H Eurofins-Panlabs selectivity data (BI); conditions: Compound concentration 10.0 uM
T1 sequence (whole entry): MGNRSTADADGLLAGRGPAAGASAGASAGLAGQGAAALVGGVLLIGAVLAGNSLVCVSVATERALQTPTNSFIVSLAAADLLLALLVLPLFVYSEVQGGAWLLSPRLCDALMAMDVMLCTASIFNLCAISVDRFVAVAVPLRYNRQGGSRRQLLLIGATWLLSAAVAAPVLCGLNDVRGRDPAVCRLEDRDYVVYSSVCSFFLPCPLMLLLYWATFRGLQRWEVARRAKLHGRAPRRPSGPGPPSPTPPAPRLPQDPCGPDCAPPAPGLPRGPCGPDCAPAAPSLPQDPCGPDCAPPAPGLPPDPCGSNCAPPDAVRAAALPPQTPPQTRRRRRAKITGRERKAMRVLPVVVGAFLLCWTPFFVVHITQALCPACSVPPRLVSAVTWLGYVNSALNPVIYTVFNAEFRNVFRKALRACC

[11] = biological target: Histamine H3 receptor (Homo sapiens) (UniProt Q9Y5N1); test: H3/H Eurofins-Panlabs selectivity data (BI); conditions: Compound concentration 10.0 uM
Chain of Histamine H3 receptor (Homo sapiens) (Q9Y5N1 whole entry): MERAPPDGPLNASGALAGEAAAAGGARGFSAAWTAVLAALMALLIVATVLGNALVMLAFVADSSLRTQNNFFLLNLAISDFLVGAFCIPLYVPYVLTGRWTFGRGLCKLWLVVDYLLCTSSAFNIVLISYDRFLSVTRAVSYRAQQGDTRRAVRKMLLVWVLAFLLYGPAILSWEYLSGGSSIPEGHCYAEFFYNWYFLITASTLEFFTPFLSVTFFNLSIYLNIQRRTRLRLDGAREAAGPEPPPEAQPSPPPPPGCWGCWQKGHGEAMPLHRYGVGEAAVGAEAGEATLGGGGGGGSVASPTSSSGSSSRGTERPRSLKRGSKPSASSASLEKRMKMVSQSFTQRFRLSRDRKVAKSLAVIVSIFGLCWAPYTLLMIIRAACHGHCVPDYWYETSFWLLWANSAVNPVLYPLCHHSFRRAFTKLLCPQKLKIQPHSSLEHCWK

[12] = biological target: 5-hydroxytryptamine receptor 5A (Homo sapiens) (UniProt P47898); test: 5HT5A/HU Eurofins-Panlabs selectivity data (BI); conditions: Compound concentration 10.0 uM
Chain of 5-hydroxytryptamine receptor 5A (Homo sapiens) (P47898 whole entry): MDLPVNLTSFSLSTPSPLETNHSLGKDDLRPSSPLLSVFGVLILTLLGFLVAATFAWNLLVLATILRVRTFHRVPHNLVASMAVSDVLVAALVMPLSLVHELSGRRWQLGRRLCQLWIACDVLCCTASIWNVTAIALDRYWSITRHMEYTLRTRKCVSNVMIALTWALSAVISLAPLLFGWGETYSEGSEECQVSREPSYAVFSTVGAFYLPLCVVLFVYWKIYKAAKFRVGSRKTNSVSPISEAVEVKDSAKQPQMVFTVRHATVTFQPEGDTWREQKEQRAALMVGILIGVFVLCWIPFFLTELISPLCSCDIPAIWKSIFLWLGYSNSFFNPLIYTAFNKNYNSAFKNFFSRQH

Chain of Histamine H1 receptor (Homo sapiens) (P35367 whole entry): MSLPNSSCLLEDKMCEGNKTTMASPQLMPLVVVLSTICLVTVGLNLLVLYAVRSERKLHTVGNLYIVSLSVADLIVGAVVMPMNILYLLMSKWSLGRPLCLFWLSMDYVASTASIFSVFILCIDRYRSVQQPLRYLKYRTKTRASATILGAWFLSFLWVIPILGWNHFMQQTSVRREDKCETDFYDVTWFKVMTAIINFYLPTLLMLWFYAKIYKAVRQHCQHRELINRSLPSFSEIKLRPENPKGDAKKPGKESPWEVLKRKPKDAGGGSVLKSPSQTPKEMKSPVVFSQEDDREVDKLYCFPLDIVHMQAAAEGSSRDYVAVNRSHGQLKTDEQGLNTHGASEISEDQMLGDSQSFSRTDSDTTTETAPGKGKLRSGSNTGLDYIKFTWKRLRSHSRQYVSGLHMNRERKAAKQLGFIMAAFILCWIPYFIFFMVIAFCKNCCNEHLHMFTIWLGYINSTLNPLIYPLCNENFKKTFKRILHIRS

Work on `C[C@H](NC(=O)c1cnc2n1[C@](C)(Cc1ccc(C#N)cc1)C(=O)N2c1cc(Cl)c(F)c(Cl)c1)C(=O)NC1(c2ccccn2)CC1` [BI 1950] yielded an inhibition [1] of 4.9%, a residual activity [2] of 109% and a residual activity [3] of 85%. For the same compound, the residual activity [4] was 72%, the residual activity [5] was 102% and the residual activity [6] was 84%. The residual activity [7] was 115%, the residual activity [8] was 96% and the residual activity ([9]; Compound concentration 0.03 uM) was 103%. It also gave a residual activity ([9]; Compound concentration 0.1 uM) of 86%, a residual activity ([9]; Compound concentration 0.3 uM) of 84% and a residual activity ([9]; Compound concentration 1.0 uM) of 75%. It also gave a residual activity ([9]; Compound concentration 3.0 uM) of 67%, a residual activity ([9]; Compound concentration 10.0 uM) of 42% and a residual activity [10] of 86%. For the same compound, the residual activity [11] was 98% and the residual activity [12] was 105%.
